Experimental data from US11471507B2, “HMGB1 antagonist” (THE FEINSTEIN INSTITUTES FOR MEDICAL RESEARCH, priority 2019, dated 2022).
Several values for one entry are separate records, joined by “and”; a condition that tells them apart may be missing. Identical values can stand only once. Entries after “also recorded” stand apart in the source; their conditions may differ. Like-named read-outs stand apart in the source and are kept apart here. Marks after values point to notes of the source that are not given here.

How the values were obtained:
[1] = Pharmacokinetics after intravenous administration in rats (LC-MS)
[2] = test system: HMGB1-induced TNF release; experiment: HMGB1-induced TNF release in human primary macrophages (ELISA); type: cell-based; details: FIG. 17A
Procedure: For all of these studies, TNF released was measured using an ELISA.

F11 cells = experiment: Disulfide HMGB1-induced calcium influx in F11 cells; type: cell-based; details: relative fluorescent intensity; most inhibition at 50 μg/ml
Source text: These studies all measured relative fluorescent intensity with FIG. 30C which included the largest amount of […]

[3] = test system: PAMPs-induced TNF release (LPS, PGN, AGE, Poly I:C); experiment: PAMPs-induced TNF release in human macrophages; type: cell-based; details: LPS 4 ng/ml, poly I:C 50 μg/ml, PGN 5 μg/ml, S100A12 50 μg/ml; 16 hours
Solubility of K883 = type: physicochemical
Source text: This provides the basis for developing intravenous (IV) formulation that will serve as a benchmark for developing oral (PO) formulations.

[4] = in vivo
[5] = test system: CCI-induced neuropathic pain; experiment: Chronic constriction injury of the sciatic nerve (CCI) neuropathic pain; design: species or system male Wistar rats; details: rat, in vivo
Single-dose tolerability = type: in vivo; details: single-dose studies
STZ-induced diabetes = experiment: STZ-induced diabetes; type: in vivo, mice; details: 500 μg/mouse repetitive administration; vs PBS
Procedure: Mice were administered repetitive administration of […] (500 μg/mouse). […] Repetitive administration of […] was therefore shown to be beneficial in STZ-induced diabetes. […] (*: P<0.05 vs. PBS group. N=6-8 mice per group).

[6] = test system: cecal ligation and puncture-sepsis; experiment: Cecal ligation and puncture (CLP) sepsis; type: in vivo; details: male C57BL/6 mice; 500 μg/mouse IP once a day for 3 days starting 24 hours post CLP; n=15
[7] = test system: CCI-induced neuropathic pain; experiment: Chronic constriction injury of the sciatic nerve (CCI) neuropathic pain; type: in vivo, male Wistar rats; details: for Paw Withdrawal Latency: CCI
Procedure: The CCI rats each received surgery. […] Mechanical and thermal sensitivity tests were also performed over time. Hargreaves Thermal Hypersensitivity test was administered to the rats as well as Von Frey mechanical hypersensitivity test.
Rats (male Wistar, 150-180 gm, n=6/group) had CCI surgery. […] Two weeks after surgery, thermal (Hargreaves) or mechanical (von Frey) hypersensitivity was assessed. *: P<0.05 vs. PBS group. […]

[8] = test system: DAMPs-induced TNF secretion (CIRP, SAA, PEDF, HSP 70, HSP90, H2A); experiment: DAMPs-induced TNF secretion in human macrophages; type: cell-based; details: 16 hours
[9] = test system: APAP-induced liver injury; experiment: APAP-induced liver injury model; type: in vivo, male C57BL/6 mice
in vivo = details: male, Sprague-Dawley, rat; for AUC(0-inf): iv, 1 mg/kg
[10] = test system: liver ischemia and reperfusion injury; details: 500 μg/mouse IP at time of I/R surgery; 6 hours; vs vehicle; cited from earlier work
[11] = test system: APAP-induced liver injury; details: comparative data, cited from earlier work
[12] = test system: cecal ligation and puncture-sepsis; details: male C57BL/6 mice; 50 or 500 μg/mouse IP once a day for 4 days starting 24 hours post CLP; n=20; comparative data; cited from earlier work

NC(=O)N(CCC(=O)O)NC(=O)[C@H](CO)NC(=O)[C@H](CO)NC(=O)N(N)Cc1ccccc1 [K883]
AUClast, individual rats ([1]; IV 1 mg/kg, 1 mg/kg): 3.772 µg·h/mL and 3.807 µg·h/mL and 3.749 µg·h/mL | MRTlast, individual rats ([1]; IV 1 mg/kg, 1 mg/kg): 32.1 min and 31.7 min and 36.4 min | Vss, individual rats ([1]; IV 1 mg/kg, 1 mg/kg): 0.163 L/kg | t1/2, individual rats ([1]; IV 1 mg/kg, 1 mg/kg): 78 min | Plasma concentration, individual rats ([1]; IV 1 mg/kg, 0.50 hr, 1 mg/kg): 2.5 µg/mL and 3.22 µg/mL | Plasma concentration, individual rats ([1]; IV 1 mg/kg, 1.0 hr, 1 mg/kg): 1.16 µg/mL and 1.3 µg/mL | Plasma concentration, individual rats ([1]; IV 1 mg/kg, 2.0 hr, 1 mg/kg): 0.13 µg/mL and 0.142 µg/mL | Plasma concentration, individual rats ([1]; IV 1 mg/kg, 4.0 hr, 1 mg/kg): 0.0151 µg/mL and 0.0177 µg/mL | Plasma concentration, individual rats ([1]; IV 1 mg/kg, 6.0 hr, 1 mg/kg): 0.00404 µg/mL and 0.00477 µg/mL | Plasma concentration, individual rats ([1]; IV 1 mg/kg, 8.0 hr): 0.00201 µg/mL | Plasma concentration, individual rats ([1]; IV 1 mg/kg, 8.0 hr, 1 mg/kg): 0.000871 µg/mL and 0.00168 µg/mL | AUClast, Mean ([1]; IV 1 mg/kg, mean of 3 rats): 3.776 µg·h/mL | MRTlast, Mean ([1]; IV 1 mg/kg, mean of 3 rats): 33.4 min | half-life ([1]; male, Sprague-Dawley, rat, in vivo, 1 mg/kg, in vivo half-life (T½)): > 60 min | AUC(0-inf) ([1]; male, Sprague-Dawley, rat, in vivo, iv, 1 mg/kg): 3.78 µg·h/mL | concentration at 0.5 hr ([1]; male, Sprague-Dawley, rat, in vivo, iv, 1 mg/kg, Plasma concentration, Mean, IV 1 mg/kg, 0.50 hr, mean of 3 rats): 2.91 µg/mL | concentration at 1 hr ([1]; male, Sprague-Dawley, rat, in vivo, iv, 1 mg/kg, Plasma concentration, Mean, IV 1 mg/kg, 1.0 hr, mean of 3 rats): 1.09 µg/mL | concentration at 2 hr ([1]; male, Sprague-Dawley, rat, in vivo, iv, 1 mg/kg, Plasma concentration, Mean, IV 1 mg/kg, 2.0 hr, mean of 3 rats): 0.135 µg/mL | concentration at 4 hr ([1]; male, Sprague-Dawley, rat, in vivo, iv, 1 mg/kg, Plasma concentration, Mean, IV 1 mg/kg, 4.0 hr, mean of 3 rats): 0.0166 µg/mL | concentration at 6 hr ([1]; male, Sprague-Dawley, rat, in vivo, iv, 1 mg/kg, Plasma concentration, Mean, IV 1 mg/kg, 6.0 hr, mean of 3 rats): 0.0051 µg/mL | concentration at 8 hr ([1]; male, Sprague-Dawley, rat, in vivo, iv, 1 mg/kg, Plasma concentration, Mean, IV 1 mg/kg, 8.0 hr, mean of 3 rats): 0.00152 µg/mL | concentration at 0.5 hr ([1]; male, Sprague-Dawley, rat, in vivo, iv, 1 mg/kg, Plasma concentration, individual rats, IV 1 mg/kg, 0.50 hr): 3.02 µg/mL | concentration at 1 hr ([1]; male, Sprague-Dawley, rat, in vivo, iv, 1 mg/kg, Plasma concentration, individual rats, IV 1 mg/kg, 1.0 hr): 0.814 µg/mL | concentration at 2 hr ([1]; male, Sprague-Dawley, rat, in vivo, iv, 1 mg/kg, Plasma concentration, individual rats, IV 1 mg/kg, 2.0 hr): 0.133 µg/mL | concentration at 4 hr ([1]; male, Sprague-Dawley, rat, in vivo, iv, 1 mg/kg, Plasma concentration, individual rats, IV 1 mg/kg, 4.0 hr): 0.017 µg/mL | concentration at 6 hr ([1]; male, Sprague-Dawley, rat, in vivo, iv, 1 mg/kg, Plasma concentration, individual rats, IV 1 mg/kg, 6.0 hr): 0.00649 µg/mL | HMGB1-induced TNF secretion [2]: inhibition | disulfide HMGB1-induced calcium influx (F11 cells): inhibit disulfide hmgb1-induced calcium influx | PAMPs-induced TNF release [3]: failed to inhibit other PAMPS; also recorded: does not inhibit other PAMPs | solubility (Solubility of K883; aqueous with cosolvent or surfactant or cyclodextrin, PBS:PEG 300:propylene glycol:polysorbate 80 at 50:40:5:5, preliminary evidence, read-out: solubility in excipient mixture): > 5 mg/mL | solubility (Solubility of K883; water, read-out: solubility in water): < 0.1 mg/mL | oral bioavailability [4]: low oral bioavailability | CCI-induced CXCL1, TNF and IL-1β expression (spine) [5]: reduce CCI-induced CSCL1, TNF and IL-1β expression | CCI-induced CXCL1 and TNF expression (DRGs) [5]: reduce CCI-induced CSCL1 and TNF expression | tolerability (Single-dose tolerability): well-tolerated | hyperglycemia (STZ-induced diabetes): delays hyperglycemia | insulitis (STZ-induced diabetes): reduces insulitis | weight gain (STZ-induced diabetes): improves weight gain | sepsis lethality (survival 2 weeks) [6]: protects against sepsis lethality | CCI-induced thermal and mechanical hypersensitivity ([7]; 800 μg/rat IP once a day for 3 days, Hargreaves, von Frey): ameliorated both mechanical and thermal hypersensitivity; also recorded: improved CCI-induced thermal and mechanical hypersensitivity | tolerance to repeated treatment ([7]; 800 μg/rat IP once daily for three days): did not develop tolerance | paw withdrawal ([7]; CCI rat model, vehicle 3.73+/−0.58 (SD)): 5.45 ± 0.98 s | Paw Withdrawal Latency ([7]; 0 hours post treatment): 4.1 ± 1.0 s | Paw Withdrawal Latency ([7]; 2 hours post treatment): 4.3 ± 1.2 s | Paw Withdrawal Latency ([7]; 6 hours post treatment): 6.0 ± 0.6* sec | Paw Withdrawal Latency ([7]; 24 hours post treatment): 5.0 ± 0.5 s | TNF secretion induced by other DAMPs [8]: not inhibited | serum ALT ([9]; 50 ugs/mouse, vs vehicle controls): reduced serum ALT | liver necrosis (H&E histology) ([9]; APAP 350 mg/kg IP, K883 50 μg/mouse IP at 2 and 7 hours post-APAP, 24 hours, vs vehicle): reduced liver necrosis | mice surviving the toxicity of APAP (2 weeks) ([9]; APAP 400 mg/kg, 50 μg/mouse IP once-a-day for 5 days starting 2 hours post-APAP, 8 in the control group): 14 mice out of 15 | AUC(0-inf) (in vivo; Mean): 3.78 µg·h/mL | AUC(0-inf) (in vivo; individual rats): 3.81 µg·h/mL | half-life (in vivo; serum half-life): > 60 min

NC(=O)[C@H](CCC(=O)O)NC(=O)[C@H](CO)NC(=O)[C@H](CO)NC(=O)[C@@H](N)Cc1ccccc1 [P5779]
Serum levels of ALT and AST [10]: reduced | serum ALT ([11]; 500 ugs/mouse): significant reductions in ALT | liver necrosis (H&E histology) ([11]; APAP 350 mg/kg IP, P5779 50 or 500 μg/mouse IP at 2 and 7 hours, vs scrambled control peptide): reduced liver necrosis | Percent survival (2 weeks) post-APAP ([11]; APAP 400 mg/kg, 500 μg/mouse IP once a day for 5 days, n=30): significantly improved | sepsis lethality (survival 2 weeks) [12]: protects against sepsis lethality
